Test results: US4067990A, “Process for the preparation of insecticidal compositions based on carbamic esters” (Airwick Industries, Inc., priority 1971, dated 1978)
Like-named read-outs stand apart in the source and are kept apart here.

Columns and labels:
[1] = test system: common cockroaches; experiment: Test I: insecticidal efficacy of sprayed glass plates after 24 hours, one minute contact, common cockroaches; assay type: in vivo, Blatta orientalis; conditions: compared with Dioxacarb
Protocol: After a standing time of 24 hours, tests to determine insecticidal efficacy were carried out on common cockroaches, these being placed on the treated face of the glass plate for one minute, and then transferred for observation to ventilated glass jars. […] The proportions recorded are shown below.

[2] = at 25° C
[3] = Dissolution capacity of diluents/solvents for Dioxacarb and Arprocarb; assay type: physicochemical; conditions: at 20° C; for Dissolution capacity for ARPROCARB / Dissolving capacity for Arprocarb: solute Arprocarb; for Dissolving capacity for Arprocarb: footnotes; for Dissolution capacity for DIOXACARB / Dissolving capacity for Dioxacarb: solute Dioxacarb

| Compound | insecticidal behaviour in words [1] | Vapour pressure [2] [Torr] | Vapour pressure ([2]; listed as Dioctyl phthalate) | Vapour pressure ([2]; listed as dioctylphthalate) [Torr] | Dissolution capacity for ARPROCARB [3] [weight %] | Dissolving capacity for Arprocarb [3] | Dissolution capacity for DIOXACARB [3] [weight %] | Dissolving capacity for Dioxacarb [3] [%] | Vapour pressure ([2]; listed as Isopropyl myristate) | Vapour pressure ([2]; listed as isopropylmyristate) [Torr] |
| --- | --- | --- | --- | --- | --- | --- | --- | --- | --- | --- |
| CNC(=O)Oc1ccccc1OC(C)C [Arprocarb, 2-isopropoxyphenyl N-methyl-carbamate] | behaves exactly as Dioxacarb |  |  |  |  |  |  |  |  |  |
| CCCCCCCCOC(=O)c1ccccc1C(=O)OCCCCCCCC [Dioctylphthalate] |  | < 0.0001 | below 0.0001 Torr | < 0.005 | 2.6 | 2.6% | 0.1 | 0.1 |  |  |
| CC(C)O [Isopropanol] |  | 44 |  |  | 30 | approximately 30% | 4.5 | 4.5 |  |  |
| CC#N [Acetonitrile] |  | 86 |  |  |  |  | 35.5 | 35.5 |  |  |
| ter. Dodecanethiol |  | 0.008 |  |  |  |  | 0.2 |  |  |  |
| CCCCCCCCCCCCCC(=O)OC(C)C [Isopropylmyristate] |  |  |  |  | 1.3 | 1.3% | 0.3 | 0.3 | ca. 0.001 Torr | < 0.005 |
| CCOCCOCCOC(C)Oc1ccc2c(c1)OCO2 (centres unmarked) [T.U.O.B., 5-(3,6,9-trioxa-undecyl-2-oxy)-1,3-benzodioxole] |  | < 0.005 |  |  | 5.0 | 5% | 2.9 | 2.9 |  |  |
| C1CCOC1 [Tetrahydrofuran] |  | 176 |  |  | 50 | approximately 50% | 33.5 | 33.5 |  |  |
| CCC(N)(CO)CO [2-Amino-2-ethyl-1,3-propanediol] |  | 0.01 |  |  |  |  | 2.4 |  |  |  |
| CC(=O)OCC(C)C [Isobutylacetate] |  | 17 |  |  |  |  | 6 |  |  |  |
